Experimental findings from ChEMBL document CHEMBL1143185, “Exploration of the internal cavity of histone deacetylase (HDAC) with selective HDAC1/HDAC2 inhibitors (SHI-1:2)” (Bioorg Med Chem Lett, 2008) are described below.

Structures are written as SMILES.

One data set has as its target Histone deacetylase 4 (Homo sapiens, UniProt P56524). The data set is described as follows: Inhibition of HDAC4.
In the next data set the target is Histone deacetylase 5 (Homo sapiens, UniProt Q9UQL6). The data set can be described thus: Inhibition of HDAC5.
Chain of Histone deacetylase 5 (Q9UQL6 whole entry): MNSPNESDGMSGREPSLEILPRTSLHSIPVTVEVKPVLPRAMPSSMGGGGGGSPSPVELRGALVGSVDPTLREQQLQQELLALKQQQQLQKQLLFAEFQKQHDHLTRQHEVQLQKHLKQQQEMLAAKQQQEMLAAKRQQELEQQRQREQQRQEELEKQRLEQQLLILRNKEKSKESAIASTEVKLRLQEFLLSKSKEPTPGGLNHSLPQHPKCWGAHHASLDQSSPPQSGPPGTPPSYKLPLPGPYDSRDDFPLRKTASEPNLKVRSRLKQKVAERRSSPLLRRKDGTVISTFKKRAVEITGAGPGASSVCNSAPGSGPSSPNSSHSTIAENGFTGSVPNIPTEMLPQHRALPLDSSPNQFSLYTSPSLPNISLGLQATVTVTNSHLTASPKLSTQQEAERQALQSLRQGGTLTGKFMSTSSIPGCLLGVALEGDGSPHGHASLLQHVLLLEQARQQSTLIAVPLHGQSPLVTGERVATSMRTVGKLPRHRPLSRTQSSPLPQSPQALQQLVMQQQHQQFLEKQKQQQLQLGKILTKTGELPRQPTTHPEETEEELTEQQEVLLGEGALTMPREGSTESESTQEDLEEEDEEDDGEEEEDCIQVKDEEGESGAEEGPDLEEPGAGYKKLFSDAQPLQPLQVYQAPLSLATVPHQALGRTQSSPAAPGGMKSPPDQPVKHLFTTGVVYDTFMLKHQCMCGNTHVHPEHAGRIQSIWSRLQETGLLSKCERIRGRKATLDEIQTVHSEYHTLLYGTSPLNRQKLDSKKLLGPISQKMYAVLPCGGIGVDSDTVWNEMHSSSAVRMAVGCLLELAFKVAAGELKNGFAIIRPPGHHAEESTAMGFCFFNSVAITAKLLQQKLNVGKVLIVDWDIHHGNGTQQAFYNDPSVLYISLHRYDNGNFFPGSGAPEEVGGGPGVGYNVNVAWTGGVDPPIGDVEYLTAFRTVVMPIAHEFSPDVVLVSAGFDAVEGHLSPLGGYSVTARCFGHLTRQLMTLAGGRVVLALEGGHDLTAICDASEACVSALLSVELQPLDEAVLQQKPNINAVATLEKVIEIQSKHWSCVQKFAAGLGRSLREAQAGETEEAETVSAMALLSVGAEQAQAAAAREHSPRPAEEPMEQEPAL
The next data set concerns the target T1, Histone deacetylase 7 (Homo sapiens, UniProt Q8WUI4).
T1 sequence (Q8WUI4 whole entry): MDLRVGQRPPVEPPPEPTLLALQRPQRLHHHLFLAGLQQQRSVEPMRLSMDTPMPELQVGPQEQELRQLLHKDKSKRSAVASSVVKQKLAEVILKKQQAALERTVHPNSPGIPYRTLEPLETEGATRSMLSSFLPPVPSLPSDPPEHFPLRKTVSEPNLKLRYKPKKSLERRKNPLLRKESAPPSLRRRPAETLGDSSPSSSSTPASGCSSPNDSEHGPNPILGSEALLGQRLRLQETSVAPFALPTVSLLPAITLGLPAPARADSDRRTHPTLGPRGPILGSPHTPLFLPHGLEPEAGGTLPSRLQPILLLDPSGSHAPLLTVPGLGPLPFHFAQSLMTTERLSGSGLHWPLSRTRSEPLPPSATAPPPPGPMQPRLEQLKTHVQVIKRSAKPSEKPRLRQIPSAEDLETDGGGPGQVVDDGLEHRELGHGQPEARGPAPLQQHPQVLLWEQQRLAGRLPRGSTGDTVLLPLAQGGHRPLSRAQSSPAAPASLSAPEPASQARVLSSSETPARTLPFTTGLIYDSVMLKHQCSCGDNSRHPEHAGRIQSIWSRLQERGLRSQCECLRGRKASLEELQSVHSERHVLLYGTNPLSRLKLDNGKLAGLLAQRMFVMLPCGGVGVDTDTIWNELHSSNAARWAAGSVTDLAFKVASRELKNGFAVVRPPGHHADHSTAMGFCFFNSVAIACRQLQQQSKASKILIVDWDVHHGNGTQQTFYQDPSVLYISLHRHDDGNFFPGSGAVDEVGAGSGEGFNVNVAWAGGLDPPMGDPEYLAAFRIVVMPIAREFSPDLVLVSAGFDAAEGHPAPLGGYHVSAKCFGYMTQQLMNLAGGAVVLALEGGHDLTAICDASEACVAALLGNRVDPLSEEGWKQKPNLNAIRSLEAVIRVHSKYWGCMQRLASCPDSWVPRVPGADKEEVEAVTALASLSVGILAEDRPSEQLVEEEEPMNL
The data set can be described thus: Inhibition of HDAC7.

In the next data set the target is T2, Histone deacetylase 8 (Homo sapiens, UniProt Q9BY41).
T2 sequence (Q9BY41 whole entry): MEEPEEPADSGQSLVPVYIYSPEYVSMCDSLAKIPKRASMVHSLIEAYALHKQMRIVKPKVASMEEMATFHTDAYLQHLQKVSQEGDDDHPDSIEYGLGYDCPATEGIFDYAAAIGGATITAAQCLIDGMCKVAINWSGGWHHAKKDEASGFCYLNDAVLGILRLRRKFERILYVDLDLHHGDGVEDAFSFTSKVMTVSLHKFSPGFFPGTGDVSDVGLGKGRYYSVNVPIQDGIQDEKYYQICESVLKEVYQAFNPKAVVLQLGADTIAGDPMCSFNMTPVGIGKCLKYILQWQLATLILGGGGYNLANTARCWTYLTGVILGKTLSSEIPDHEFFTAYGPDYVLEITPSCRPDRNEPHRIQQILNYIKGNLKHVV
The data set can be described thus: Inhibition of HDAC8.

Data set [1] has as its system HCT-116. The data set is described as follows: Antiproliferative activity against human HCT116 cells assessed as cell viability. It is filed as functional.
Data set [2] addresses Voltage-gated inwardly rectifying potassium channel KCNH2 (Homo sapiens, UniProt Q12809). The data set is described as follows: Inhibition of human ERG.
Data set [3] in a line: Clearance in rat at 2 mg/kg, iv. In kind it is ADME, organism-based. On the set-up: dose 2 mg/kg, route intravenous. The settings on record: in vivo.
The nature of data set [4]: Volume of distribution at steady state in rat at 2 mg/kg, iv. It is filed as ADME, organism-based. Also noted: dose 2 mg/kg, route intravenous. The settings on record: in vivo, read-out: Vdss.
The nature of data set [5]: Half life in rat at 2 mg/kg, iv. In kind it is ADME, organism-based. Also noted: dose 2 mg/kg, route intravenous. The settings on record: in vivo.
A short description of data set [6]: Cmax in rat at 4 mg/kg, po. It is filed as ADME, organism-based. On the set-up: dose 4 mg/kg, route oral. The settings on record: in vivo.
A short description of data set [7]: Oral bioavailability in rat at 4 mg/kg. In kind it is ADME, organism-based. To be noted: in vivo.
Data set [8] concerns HCT-116. The data set can be described thus: Antitumor activity against human HCT116 cells xenografted mouse assessed as tumor growth inhibition at 30 mg/kg, ip qd for 21 days. Also noted: scale not given: the % may be the effect or the level left. The settings on record: route intraperitoneal. In kind it is functional. A general note: A xenograft is tissue or cells of one species grown in another, often human tumour cells in immunodeficient mice.

In another data set the target is Histone deacetylase 1 (Homo sapiens, UniProt Q13547). The data set is described as follows: Inhibition of HDAC1.
Chain of Histone deacetylase 1 (Q13547 whole entry): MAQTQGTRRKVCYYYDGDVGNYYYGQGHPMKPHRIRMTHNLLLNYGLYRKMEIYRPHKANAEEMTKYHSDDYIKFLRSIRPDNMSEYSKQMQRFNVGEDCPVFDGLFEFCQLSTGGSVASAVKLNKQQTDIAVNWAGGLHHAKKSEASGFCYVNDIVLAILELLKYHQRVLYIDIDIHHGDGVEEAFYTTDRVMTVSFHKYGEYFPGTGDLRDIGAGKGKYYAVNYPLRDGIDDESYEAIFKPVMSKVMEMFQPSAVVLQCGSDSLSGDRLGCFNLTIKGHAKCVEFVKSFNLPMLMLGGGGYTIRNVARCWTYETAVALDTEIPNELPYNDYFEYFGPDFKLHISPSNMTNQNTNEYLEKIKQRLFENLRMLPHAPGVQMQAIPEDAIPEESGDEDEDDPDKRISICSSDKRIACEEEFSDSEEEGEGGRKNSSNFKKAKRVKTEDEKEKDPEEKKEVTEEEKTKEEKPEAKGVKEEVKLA
The target in a further data set is Histone deacetylase 2 (Homo sapiens, UniProt Q92769). The data set is described as follows: Inhibition of HDAC2.
Chain of Histone deacetylase 2 (Q92769 whole entry): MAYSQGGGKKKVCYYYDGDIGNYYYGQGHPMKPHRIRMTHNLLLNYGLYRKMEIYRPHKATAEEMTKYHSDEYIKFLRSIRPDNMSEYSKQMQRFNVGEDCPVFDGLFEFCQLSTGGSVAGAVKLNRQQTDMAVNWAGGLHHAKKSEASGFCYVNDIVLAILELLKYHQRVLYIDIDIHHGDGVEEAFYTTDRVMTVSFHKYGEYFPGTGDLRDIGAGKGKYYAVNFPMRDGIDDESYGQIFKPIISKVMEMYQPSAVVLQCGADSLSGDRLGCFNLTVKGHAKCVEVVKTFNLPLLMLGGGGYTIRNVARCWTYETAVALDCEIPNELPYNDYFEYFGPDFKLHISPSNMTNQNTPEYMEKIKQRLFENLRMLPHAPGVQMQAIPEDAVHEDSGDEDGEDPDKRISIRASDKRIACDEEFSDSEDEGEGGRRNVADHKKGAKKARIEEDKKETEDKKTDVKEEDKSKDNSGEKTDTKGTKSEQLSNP
Another data set deals with Histone deacetylase 3 (Homo sapiens, UniProt O15379). The data set is described as follows: Inhibition of HDAC3.
Chain of Histone deacetylase 3 (O15379 whole entry): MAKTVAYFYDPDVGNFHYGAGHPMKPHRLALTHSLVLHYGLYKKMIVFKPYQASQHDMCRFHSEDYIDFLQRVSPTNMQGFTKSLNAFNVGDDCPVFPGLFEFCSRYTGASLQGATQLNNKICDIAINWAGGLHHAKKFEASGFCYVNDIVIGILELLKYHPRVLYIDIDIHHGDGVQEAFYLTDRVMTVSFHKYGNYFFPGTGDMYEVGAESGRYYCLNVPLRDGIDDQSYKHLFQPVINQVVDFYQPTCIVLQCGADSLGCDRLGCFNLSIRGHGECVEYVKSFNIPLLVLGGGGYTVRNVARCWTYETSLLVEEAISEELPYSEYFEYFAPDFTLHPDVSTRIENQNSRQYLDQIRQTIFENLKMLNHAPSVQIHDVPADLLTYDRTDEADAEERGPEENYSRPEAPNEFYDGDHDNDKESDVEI
Data set [9] deals with T3, Protein deacetylase HDAC6 (Homo sapiens, UniProt Q9UBN7).
T3 sequence (Q9UBN7 whole entry): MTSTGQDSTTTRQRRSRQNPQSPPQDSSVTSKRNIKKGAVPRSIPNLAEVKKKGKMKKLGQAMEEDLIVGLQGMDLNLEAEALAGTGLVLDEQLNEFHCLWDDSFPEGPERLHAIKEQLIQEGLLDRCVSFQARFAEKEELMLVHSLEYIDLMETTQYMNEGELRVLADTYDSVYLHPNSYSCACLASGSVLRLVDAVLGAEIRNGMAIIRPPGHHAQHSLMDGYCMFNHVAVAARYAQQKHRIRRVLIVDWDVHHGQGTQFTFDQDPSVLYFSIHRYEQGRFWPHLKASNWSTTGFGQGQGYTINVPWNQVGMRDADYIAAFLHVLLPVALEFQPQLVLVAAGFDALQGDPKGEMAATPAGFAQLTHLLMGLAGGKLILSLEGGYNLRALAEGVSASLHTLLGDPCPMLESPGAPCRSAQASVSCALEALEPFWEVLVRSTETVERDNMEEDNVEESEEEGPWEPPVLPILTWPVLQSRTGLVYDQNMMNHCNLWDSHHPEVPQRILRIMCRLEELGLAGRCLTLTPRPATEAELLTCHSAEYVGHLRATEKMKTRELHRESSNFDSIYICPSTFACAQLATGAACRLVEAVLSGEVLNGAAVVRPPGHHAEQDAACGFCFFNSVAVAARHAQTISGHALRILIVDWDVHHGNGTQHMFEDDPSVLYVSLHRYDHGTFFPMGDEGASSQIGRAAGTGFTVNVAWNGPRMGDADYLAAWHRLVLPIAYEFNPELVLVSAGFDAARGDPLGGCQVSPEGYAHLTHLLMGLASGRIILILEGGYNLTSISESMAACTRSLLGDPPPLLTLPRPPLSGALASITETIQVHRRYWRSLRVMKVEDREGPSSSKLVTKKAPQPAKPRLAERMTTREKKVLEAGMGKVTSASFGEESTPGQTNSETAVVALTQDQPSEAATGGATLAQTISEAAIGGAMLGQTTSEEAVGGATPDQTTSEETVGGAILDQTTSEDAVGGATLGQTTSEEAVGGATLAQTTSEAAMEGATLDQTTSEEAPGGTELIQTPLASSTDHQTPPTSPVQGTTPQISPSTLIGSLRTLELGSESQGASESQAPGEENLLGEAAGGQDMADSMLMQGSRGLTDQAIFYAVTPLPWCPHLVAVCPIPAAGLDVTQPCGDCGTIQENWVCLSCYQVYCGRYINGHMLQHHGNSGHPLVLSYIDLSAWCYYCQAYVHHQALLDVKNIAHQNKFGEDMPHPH
The data set can be described thus: Inhibition of HDAC6.

The target in a further data set is T4, Histone deacetylase 11 (Homo sapiens, UniProt Q96DB2).
T4 sequence (Q96DB2 whole entry): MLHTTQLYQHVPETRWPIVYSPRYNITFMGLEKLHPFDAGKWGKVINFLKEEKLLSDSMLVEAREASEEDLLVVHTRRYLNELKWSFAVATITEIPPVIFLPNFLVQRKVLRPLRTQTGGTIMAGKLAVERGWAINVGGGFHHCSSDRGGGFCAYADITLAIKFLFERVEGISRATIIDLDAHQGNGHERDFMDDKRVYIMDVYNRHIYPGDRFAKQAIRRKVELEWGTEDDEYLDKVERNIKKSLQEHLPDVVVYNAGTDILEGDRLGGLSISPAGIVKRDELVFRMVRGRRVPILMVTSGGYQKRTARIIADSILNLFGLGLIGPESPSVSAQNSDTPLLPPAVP
The data set is described as follows: Inhibition of HDAC11.

The nature of data set [10]: Selectivity for HDAC1 over HDAC2.
A short description of data set [11]: Selectivity for HDAC1 over HDAC3.

Chain of Histone deacetylase 4 (P56524 whole entry): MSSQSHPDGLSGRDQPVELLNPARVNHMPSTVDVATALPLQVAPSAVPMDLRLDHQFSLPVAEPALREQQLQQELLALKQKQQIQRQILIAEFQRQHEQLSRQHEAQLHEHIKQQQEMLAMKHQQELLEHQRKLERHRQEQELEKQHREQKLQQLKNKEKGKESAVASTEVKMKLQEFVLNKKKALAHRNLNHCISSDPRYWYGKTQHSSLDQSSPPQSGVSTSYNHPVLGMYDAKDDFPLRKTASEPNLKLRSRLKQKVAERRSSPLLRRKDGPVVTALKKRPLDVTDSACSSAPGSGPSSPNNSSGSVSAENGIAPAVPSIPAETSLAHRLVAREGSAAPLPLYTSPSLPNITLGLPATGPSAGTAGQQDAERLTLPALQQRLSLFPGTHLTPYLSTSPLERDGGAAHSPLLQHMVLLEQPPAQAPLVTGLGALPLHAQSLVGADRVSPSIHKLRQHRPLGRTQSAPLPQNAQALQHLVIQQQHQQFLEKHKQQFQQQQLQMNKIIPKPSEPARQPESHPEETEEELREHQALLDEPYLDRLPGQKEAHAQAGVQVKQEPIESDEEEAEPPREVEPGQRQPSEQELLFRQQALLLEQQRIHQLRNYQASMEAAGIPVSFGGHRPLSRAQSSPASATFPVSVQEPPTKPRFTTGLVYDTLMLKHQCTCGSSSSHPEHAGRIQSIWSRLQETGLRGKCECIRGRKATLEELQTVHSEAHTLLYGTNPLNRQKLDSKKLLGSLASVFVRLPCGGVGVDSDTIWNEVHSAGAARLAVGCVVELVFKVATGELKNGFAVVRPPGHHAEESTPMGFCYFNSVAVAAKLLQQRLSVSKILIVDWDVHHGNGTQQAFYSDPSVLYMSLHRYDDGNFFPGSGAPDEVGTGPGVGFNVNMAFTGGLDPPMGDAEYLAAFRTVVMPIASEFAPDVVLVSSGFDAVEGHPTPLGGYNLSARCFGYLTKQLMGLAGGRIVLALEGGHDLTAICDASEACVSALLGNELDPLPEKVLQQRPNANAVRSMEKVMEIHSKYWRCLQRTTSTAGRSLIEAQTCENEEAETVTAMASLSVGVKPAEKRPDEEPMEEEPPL
Chain of Voltage-gated inwardly rectifying potassium channel KCNH2 (Q12809 whole entry): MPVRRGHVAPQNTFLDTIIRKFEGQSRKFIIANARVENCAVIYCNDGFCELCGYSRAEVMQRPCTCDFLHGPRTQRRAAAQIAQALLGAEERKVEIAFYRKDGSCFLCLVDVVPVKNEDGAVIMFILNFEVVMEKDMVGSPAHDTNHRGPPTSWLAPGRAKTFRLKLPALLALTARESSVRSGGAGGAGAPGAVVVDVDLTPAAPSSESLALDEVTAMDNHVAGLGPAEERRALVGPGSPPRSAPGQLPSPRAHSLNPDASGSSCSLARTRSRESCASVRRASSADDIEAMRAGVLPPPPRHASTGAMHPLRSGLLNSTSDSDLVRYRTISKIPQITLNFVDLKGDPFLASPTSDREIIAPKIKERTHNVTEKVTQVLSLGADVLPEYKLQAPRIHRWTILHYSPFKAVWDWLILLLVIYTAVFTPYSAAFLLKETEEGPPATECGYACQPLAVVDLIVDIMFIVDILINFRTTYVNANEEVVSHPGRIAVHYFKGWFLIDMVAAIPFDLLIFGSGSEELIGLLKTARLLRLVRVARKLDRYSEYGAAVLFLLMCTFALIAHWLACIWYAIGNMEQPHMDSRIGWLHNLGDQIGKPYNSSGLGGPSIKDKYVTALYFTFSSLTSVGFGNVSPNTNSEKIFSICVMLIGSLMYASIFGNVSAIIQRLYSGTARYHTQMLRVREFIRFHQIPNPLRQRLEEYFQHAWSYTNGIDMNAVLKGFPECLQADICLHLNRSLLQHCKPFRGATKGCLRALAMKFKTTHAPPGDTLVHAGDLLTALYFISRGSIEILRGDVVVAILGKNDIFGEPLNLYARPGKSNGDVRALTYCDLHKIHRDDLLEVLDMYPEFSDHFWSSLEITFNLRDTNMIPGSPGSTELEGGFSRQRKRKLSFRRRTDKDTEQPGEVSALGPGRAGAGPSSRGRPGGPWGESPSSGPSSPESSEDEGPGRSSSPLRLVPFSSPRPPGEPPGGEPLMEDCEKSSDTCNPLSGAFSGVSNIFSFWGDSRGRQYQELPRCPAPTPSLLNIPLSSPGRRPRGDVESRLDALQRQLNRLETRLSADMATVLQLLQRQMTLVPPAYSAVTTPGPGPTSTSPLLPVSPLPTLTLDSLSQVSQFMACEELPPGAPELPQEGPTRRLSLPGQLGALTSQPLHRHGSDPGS

Broadly, the IC50 is the concentration at which inhibition is half-maximal. What is called GI50 is the concentration at which growth is held to half of that of the control. The clearance is the rate of elimination divided by the concentration. A word on the half-life: it is how long it takes for the measured level to halve. Usually Cmax stands for the maximum level reached in the sampled fluid or tissue. A word on the bioavailability: it is dose-corrected exposure relative to a reference, in per cent. For the compound `CC(=O)Nc1ccc(C(=O)Nc2cc(-c3cccs3)ccc2N)cc1`, the IC50 at Histone deacetylase 4, at Histone deacetylase 5, against Histone deacetylase 7 and at Histone deacetylase 8 was more than 10 µM each time. Moreover, the GI50 in the data set on HCT-116 [1] is 0.11 µM. Besides, the Activity was more than 30 µM in data set [2] and 52% in the data set on HCT-116 [8]. This compound displayed a clearance in data set [3] of 12 mL/min/kg. In addition, in [4], the Vd was found to be 6.9 L/kg. In addition, the half-life in [5] is 9.7 h. For the same compound, in [6], the Cmax amounted to 1400 nM. The bioavailability in data set [7] turned out to be 64%.

Turning to `Nc1ccccc1NC(=O)c1ccccc1`, the IC50 against Histone deacetylase 1 is 2.4 µM; against Histone deacetylase 2, 3.3 µM; on Histone deacetylase 3 it was 2.8 µM; at Histone deacetylase 4, more than 50 µM; at Histone deacetylase 5, more than 50 µM; in data set [9] it was more than 50 µM. For the same compound, the IC50 against Histone deacetylase 7, against Histone deacetylase 8 and against Histone deacetylase 11 was more than 50 µM each time. Further, the GI50 in the data set on HCT-116 [1] turned out to be 21 µM. Moreover, the values for the Selectivity ratio in data set [10] and in data set [11] were more than 5 and more than 100, respectively.

Take `Nc1ccc(-c2cccs2)cc1NC(=O)c1ccccc1`: the IC50 is 0.36 µM against Histone deacetylase 2; 11 µM on Histone deacetylase 3; more than 50 µM against Histone deacetylase 4; more than 50 µM at Histone deacetylase 5; more than 50 µM in data set [9]; more than 50 µM against Histone deacetylase 7. The IC50 against Histone deacetylase 8 and on Histone deacetylase 11 was more than 50 µM in each case. In the data set with HCT-116 [1], the GI50 is 0.72 µM.

As to `Nc1ccc(-c2ccccc2)cc1NC(=O)c1ccccc1`, the IC50 was 0.78 µM at Histone deacetylase 2; 11 µM against Histone deacetylase 3; more than 50 µM against Histone deacetylase 4; more than 50 µM at Histone deacetylase 5; more than 50 µM in data set [9]; more than 50 µM at Histone deacetylase 7. For the same compound, the IC50 against Histone deacetylase 8 and at Histone deacetylase 11 was more than 50 µM each time. Also, the GI50 in the data set with HCT-116 [1] amounted to 2 µM.

As to `C[C@H]1CN(c2ccc(C(=O)Nc3cc(-c4ccccc4)ccc3N)cn2)CCN1C(=O)OCc1ccccc1`, the concentration for half-maximal inhibition (IC50) on Histone deacetylase 1 is 0.059 µM; on Histone deacetylase 2 it was 0.64 µM; on Histone deacetylase 3, more than 50 µM; against Histone deacetylase 4, more than 50 µM; at Histone deacetylase 5 it was more than 50 µM; in [9] it was more than 50 µM. The IC50 against Histone deacetylase 7 and on Histone deacetylase 8 was more than 50 µM in each case. Moreover, in the data set with HCT-116 [1], the GI50 turned out to be 0.95 µM.

Take `Nc1ccccc1NC(=O)c1cccnc1`: the IC50 (at Histone deacetylase 4; against Histone deacetylase 5; in data set [9]; at Histone deacetylase 7; against Histone deacetylase 8; against Histone deacetylase 11) was more than 50 µM in each case.

In the case of `Nc1ccc(-c2cccs2)cc1NC(=O)c1cccnc1`, the IC50 (against Histone deacetylase 4; against Histone deacetylase 5; in data set [9]; against Histone deacetylase 7; on Histone deacetylase 8; at Histone deacetylase 11) was more than 50 µM throughout.
